Test results reported in patent publication US20240074442A1, “UVARIA GRANDIFLORA EXTRACT AS A BOTANICAL FUNGICIDE, PREPARATION METHOD THEREFOR, AND APPLICATION THEREOF” (HAINAN UNIVERSITY, priority 2021, published 2024).
In brackets after ≈: the same amount, converted by molar mass. Counter-ions that a name gives are not always drawn. Like-named read-outs stand apart in the source and are kept apart here.

Assays:
Rhizoctonia solani = experiment: Mycelial growth rate method, in vitro fungicidal activity; format: cell-based; settings: R.S
Pyricularia oryzae = experiment: microbe, parasite or virus in culture; format: cell-based; settings: for inhibition at 50 µg/mL: read-out: Inhibition rate (%)
Fusarium graminearum = experiment: microbe, parasite or virus in culture; format: cell-based; settings: for inhibition at 50 µg/mL: read-out: Inhibition rate (%)
Colletotrichum siamense = experiment: Mycelial growth rate method, in vitro fungicidal activity; format: cell-based; settings: C.S, 50 μg mL^−1; for inhibition at 50 µg/mL: Colletotrichum siamense
Colletotrichum musae = experiment: as above; format: cell-based; settings: C.M
[1] = tested on: Colletotrichum gloeosporioiles; experiment: as above; format: cell-based; settings: C.G, 50 μg mL^−1; for inhibition at 50 µg/mL: Colletotrichum
Colletotrichum capsici = experiment: as above; format: cell-based; settings: C.C, 50 μg mL^−1; for inhibition at 50 µg/mL: Colletotrichum truncatum
Phytophthora capsici [2] = experiment: as above; format: cell-based; settings: P.C
Gilbertella persicaria = experiment: as above; format: cell-based; settings: G.P
[3] = tested on: Neoscytalidium dimidiatum; experiment: as above; format: cell-based; settings: N.D, 50 μg mL^−1; for inhibition at 50 µg/mL: Neoscytalidium dimidiatum
Phytophthora capsici [4] = experiment: Potted fungicidal activity test, protective effect; settings: in vivo
cowpea powdery mildew = experiment: Potted fungicidal activity test; settings: in vivo
Cucumber downy mildew = experiment: Potted fungicidal activity test; format: in vivo, Pseudoperonospora cubensis; settings: for Control effect (%): potted, cucumber downy mildew
potato late blight = format: in vivo; settings: potted
[5] = Rhizoctonia solani, 50 μg mL^−1
[6] = Rhizoctonia solani, read-out: EC50
[7] = Colletotrichum musae, 50 μg mL^−1
[8] = Colletotrichum musae, read-out: EC50
[9] = Phytophthora capsici, 50 μg mL^−1
[10] = Phytophthora capsici, read-out: EC50
[11] = Gilbertella persicaria, 50 μg mL^−1
[12] = Gilbertella persicaria, read-out: EC50

Compound	Control effect (%) (Phytophthora capsici [4])	Disease index (±SD) (Phytophthora capsici [4])	inhibition at 50 µg/mL (Rhizoctonia solani; [5])	EC50 (Rhizoctonia solani; [6])	EC50 (Pyricularia oryzae; Pyricularia oryzae)	inhibition at 50 µg/mL (Pyricularia oryzae; Pyricularia oryzae)	EC50 (Fusarium graminearum; Fusarium graminearum)	inhibition at 50 µg/mL (Fusarium graminearum; Fusarium graminearum)	inhibition at 50 µg/mL (Colletotrichum siamense)	inhibition at 50 µg/mL (Colletotrichum musae; [7])	EC50 (Colletotrichum musae; [8])	inhibition at 50 µg/mL [1]	inhibition at 50 µg/mL (Colletotrichum capsici)	inhibition at 50 µg/mL (Phytophthora capsici [2]; [9])	EC50 (Phytophthora capsici [2]; [10])	inhibition at 50 µg/mL (Gilbertella persicaria; [11])	EC50 (Gilbertella persicaria; [12])	inhibition at 50 µg/mL [3]	further results
CO/C=C(/C(=O)OC)c1ccccc1Oc1cc(Oc2ccccc2C#N)ncn1 [Azoxystrobin]	–	–	–	–	–	–	–	–	–	–	–	–	–	–	–	–	–	–	EC50 (Rhizoctonia solani): <0.06 ± 0.12 µg/mL; Inhibition rate (%) (Rhizoctonia solani; 50 μg mL^−1): 73.1%; EC50 (Pyricularia oryzae; P.O): 17.89 ± 0.14 µg/mL (≈ 44.3 µM); Inhibition rate (%) (Pyricularia oryzae; P.O, 50 μg mL^−1): 57.8%; EC50 (Fusarium graminearum; F.G): 5.27 ± 0.21 µg/mL (≈ 13.1 µM); Inhibition rate (%) (Fusarium graminearum; F.G, 50 μg mL^−1): 65.7%; Inhibition rate (%) (Colletotrichum siamense): 60.9%; EC50 (Colletotrichum musae): 52.51 ± 0.42 µg/mL (≈ 130 µM); Inhibition rate (%) (Colletotrichum musae; 50 μg mL^−1): 51.2%; Inhibition rate (%) [1]: 52.5%; Inhibition rate (%) (Colletotrichum capsici): 41.27%; EC50 (Phytophthora capsici [2]): 18.81 ± 0.31 µg/mL (≈ 46.6 µM); Inhibition rate (%) (Phytophthora capsici [2]; 50 μg mL^−1): 69.9%; EC50 (Gilbertella persicaria): 39.09 ± 0.05 µg/mL (≈ 96.9 µM); Inhibition rate (%) (Gilbertella persicaria; 50 μg mL^−1): 57.2%; Inhibition rate (%) [3]: 51.2%
COc1ccc2cc3[n+](cc2c1OC)CCc1cc2c(cc1-3)OCO2 [Berberine hydrochloride]	80.0%	16.0 ± 2.0	–	–	–	–	–	–	–	–	–	–	–	–	–	–	–	–	–
COc1ccc(C(=CC(=O)N2CCOCC2)c2ccc(Cl)cc2)cc1OC [Dimethomorph]	100.0%	0.0 ± 0.0	–	–	–	–	–	–	–	–	–	–	–	–	–	–	–	–	–
COc1ccc2ccc(=O)oc2c1CC=C(C)C [Osthole]	–	–	75.8%	16 ± 1.39 µg/mL (≈ 65.6 µM)	11.5 ± 0.42 µg/mL (≈ 47.2 µM)	89.1%	21.4 ± 0.61 µg/mL (≈ 87.7 µM)	65.1%	37.7%	93.3%	9.18 ± 0.33 µg/mL (≈ 37.6 µM)	56.9%	4.8%	55.7%	52.59 ± 0.27 µg/mL (≈ 215 µM)	94.3%	11.4 ± 0.51 µg/mL (≈ 46.7 µM)	68.2%	–
CCCC1COC(Cn2cncn2)(c2ccc(Cl)cc2Cl)O1 (stereo not drawn) [Propiconazole]	–	–	–	–	–	–	–	–	–	–	–	–	–	–	–	–	–	–	Control effect (%) (cowpea powdery mildew): 100%; Disease index (±SD) (cowpea powdery mildew): 0 ± 0.0
O=C(OC[C@]1(O)C(=O)C=C[C@H](OC(=O)c2ccccc2)[C@H]1O)c1ccccc1 [zeylenone]	–	–	76.8%	4.91 ± 0.12 µg/mL (≈ 12.8 µM)	21.38 ± 0.14 µg/mL (≈ 55.9 µM)	66.2%	22.94 ± 0.11 µg/mL (≈ 60 µM)	52.5%	43.5%	84.3%	3.37 µg/mL (≈ 8.81 µM)	45%	34.4%	88.1%	6.98 µg/mL (≈ 18.3 µM)	77.6%	17.3 ± 2.29 µg/mL (≈ 45.2 µM)	43.8%	control effect on cucumber downy mildew compared with Cyazofamid (Cucumber downy mildew; potted fungicidal activity test, in words): equivalent to that of the chemical fungicide Cyazofamid; Control effect (%) (Cucumber downy mildew; 6.25 μg mL^−1): 25 ± 1.0%; Control effect (%) (Cucumber downy mildew; 12.5 μg mL^−1): 70 ± 3.0%; Control effect (%) (Cucumber downy mildew; 25 μg mL^−1): 88 ± 1.7%; Control effect (%) (Cucumber downy mildew; 50 μg mL^−1): 99 ± 2.0%; Control effect (%) (potato late blight; 6.25 μg mL^−1): 0 ± 0.0%; Control effect (%) (potato late blight; 12.5 μg mL^−1): 0 ± 0.0%; Control effect (%) (potato late blight; 25 μg mL^−1): 0 ± 0.0%; Control effect (%) (potato late blight; 50 μg mL^−1): 20 ± 2.0%
